Experimental data published in PubChem BioAssay AID330 (DTP/NCI, 2004).
“And” between values parts separate entries of the source, which are not always exact repeats. Equal values may be shown once. Inconclusive results and toxic doses are left out.

System: P388 leukemia ip, CD2F1 mice, survival T/C
Assay: NCI In Vivo Anticancer Drug Screen. Data for tumor model P388 Leukemia (intraperitoneal) in CD2F1 (CDF1) mice
Details: endpoint: median survival time, higher = longer survival
Outline: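 Mice carrying the transplanted tumor received test compound or vehicle. Survival was recorded in each group, and the value is the treated-group measurement divided by that of the vehicle-treated control group.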

[1] = dose: 100.0 mg/kg/injection, schedule: Q04DX002 (ip), vehicle: saline with Tween-80
[2] = dose: 50.0 mg/kg/injection, schedule: Q01DX005 (ip), vehicle: saline with Tween-80
[3] = dose: 100.0 mg/kg/injection, schedule: Q01DX005 (ip), vehicle: saline with Tween-80
[4] = dose: 200.0 mg/kg/injection, schedule: Q01DX005 (ip), vehicle: saline with Tween-80
[5] = dose: 100.0 mg/kg/injection, schedule: Q04DX003 (ip), vehicle: saline
[6] = dose: 200.0 mg/kg/injection, schedule: Q04DX003 (ip), vehicle: saline
[7] = dose: 12.5 mg/kg/injection, schedule: Q01DX005 (ip), vehicle: saline with Tween-80
[8] = dose: 25.0 mg/kg/injection, schedule: Q01DX005 (ip), vehicle: saline with Tween-80
[9] = dose: 50.0 mg/kg/injection, schedule: Q01DX009 (ip), vehicle: Klucel (hydroxypropylcellulose) (HPC)
[10] = dose: 100.0 mg/kg/injection, schedule: Q01DX009 (ip), vehicle: Klucel (hydroxypropylcellulose) (HPC)
[11] = dose: 200.0 mg/kg/injection, schedule: Q01DX009 (ip), vehicle: Klucel (hydroxypropylcellulose) (HPC)
[12] = dose: 50.0 mg/kg/injection, schedule: Q04DX002 (ip), vehicle: saline with Tween-80
[13] = dose: 100.0 mg/kg/injection, schedule: Q04DX002 (ip), vehicle: saline
[14] = dose: 200.0 mg/kg/injection, schedule: Q04DX002 (ip), vehicle: saline
[15] = dose: 50.0 mg/kg/injection, schedule: Q01DX009 (ip), vehicle: saline
[16] = dose: 100.0 mg/kg/injection, schedule: Q01DX009 (ip), vehicle: saline
[17] = dose: 50.0 mg/kg/injection, schedule: Q01DX005 (ip), vehicle: Klucel (hydroxypropylcellulose) (HPC)
[18] = dose: 25.0 mg/kg/injection, schedule: Q04DX002 (ip), vehicle: saline with Tween-80
[19] = dose: 60.0 mg/kg/injection, schedule: Q01DX005 (ip), vehicle: saline with Tween-80
[20] = dose: 120.0 mg/kg/injection, schedule: Q01DX005 (ip), vehicle: saline with Tween-80
[21] = dose: 240.0 mg/kg/injection, schedule: Q01DX005 (ip), vehicle: saline with Tween-80
[22] = dose: 100.0 mg/kg/injection, schedule: Q01DX001 (ip), vehicle: Klucel (hydroxypropylcellulose) (HPC)
[23] = dose: 200.0 mg/kg/injection, schedule: Q01DX001 (ip), vehicle: Klucel (hydroxypropylcellulose) (HPC)
[24] = dose: 12.5 mg/kg/injection, schedule: Q01DX009 (ip), vehicle: saline

CCOC(=O)C(c1ccccc1)C(CC=C(C)C)(C(C)=O)C(=O)OC (stereo not given)
T/C [1]: 103 % of control
T/C (dose: 200.0 mg/kg/injection, schedule: Q04DX002 (ip), vehicle: saline with Tween-80): 103 % of control
T/C (dose: 400.0 mg/kg/injection, schedule: Q04DX002 (ip), vehicle: saline with Tween-80): 105 % of control

S=c1n(-c2ccc(Cl)cc2)c2nc3ccccc3nc(/c2=N\Nc2cc(Cl)ccc2Cl)n1-c1ccc(Br)cc1
T/C [2]: 100 % of control
T/C [3]: 105 % of control
T/C [4]: 97 % of control

COSc1ccc(OC)cc1
T/C [5]: 102 % of control
T/C [6]: 97 % of control

CC(=O)Oc1cccnc1C(C#N)C#N
T/C [7]: 108 % of control
T/C [8]: 94 % of control

c1ccc(Nc2nnnn2-c2ccccc2)cc1
T/C [8]: 100 % of control
T/C [2]: 100 % of control
T/C [3]: 104 % of control

Cc1nn(C(=O)c2ccncc2)c(C)c1N=Nc1cccc2ccccc12
T/C [9]: 96 % of control
T/C [10]: 99 % of control
T/C [11]: 96 % of control

O=C1CN(/N=C/c2ccc(-c3cccc(C(F)(F)F)c3)o2)C(=O)N1
T/C [12]: 101 % of control
T/C [1]: 109 % of control

C[n+]1ccc(C#N)c(C#N)c1
T/C (dose: 3.75 mg/kg/injection, schedule: Q01DX005 (ip), vehicle: Klucel (hydroxypropylcellulose) (HPC)): 102 % of control
T/C (dose: 7.5 mg/kg/injection, schedule: Q01DX005 (ip), vehicle: Klucel (hydroxypropylcellulose) (HPC)): 116 % of control
T/C (dose: 15.0 mg/kg/injection, schedule: Q01DX005 (ip), vehicle: Klucel (hydroxypropylcellulose) (HPC)): 103 % of control
T/C (dose: 30.0 mg/kg/injection, schedule: Q01DX005 (ip), vehicle: Klucel (hydroxypropylcellulose) (HPC)): 108 % of control and 110 % of control

O=C(CCS(=O)O)c1ccccc1
T/C [13]: 101 % of control
T/C [14]: 100 % of control
T/C (dose: 400.0 mg/kg/injection, schedule: Q04DX002 (ip), vehicle: saline): 94 % of control

COc1ccc(OC)c(N=Cc2ccc(C=Nc3cc(OC)ccc3OC)cc2)c1
T/C [15]: 101 % of control
T/C [16]: 101 % of control

CCOC(Cn1cc([N+](=O)[O-])c(=O)[nH]c1=O)OCC
T/C (dose: 25.0 mg/kg/injection, schedule: Q01DX005 (ip), vehicle: Klucel (hydroxypropylcellulose) (HPC)): 90 % of control
T/C [17]: 95 % of control

CN=C(N)NN=C(c1ccc(Cl)cc1)c1ccc(Cl)cc1
T/C (dose: 6.25 mg/kg/injection, schedule: Q04DX002 (ip), vehicle: saline with Tween-80): 101 % of control
T/C (dose: 12.5 mg/kg/injection, schedule: Q04DX002 (ip), vehicle: saline with Tween-80): 102 % of control
T/C [18]: 158 % of control

COc1ccc(OC)c(CC(CC(=O)O)C(C)=O)c1 (stereo not given)
T/C (dose: 25.0 mg/kg/injection, schedule: Q01DX009 (ip), vehicle: other): 97 % of control
T/C (dose: 50.0 mg/kg/injection, schedule: Q01DX009 (ip), vehicle: other): 100 % of control
T/C (dose: 100.0 mg/kg/injection, schedule: Q01DX009 (ip), vehicle: other): 100 % of control
T/C (dose: 200.0 mg/kg/injection, schedule: Q01DX009 (ip), vehicle: other): 101 % of control
T/C (dose: 400.0 mg/kg/injection, schedule: Q01DX009 (ip), vehicle: other): 108 % of control

Cc1ccc(C)n1N1CCOCC1
T/C [19]: 108 % of control
T/C [20]: 101 % of control
T/C [21]: 100 % of control

Nc1nnc(CCC(=O)Nc2cc(Cl)c(Cl)cc2Cl)n1N
T/C [19]: 108 % of control
T/C [20]: 111 % of control
T/C [21]: 121 % of control

CCC(/C=C/c1ccccc1)=N\Nc1ccc(Cl)c(Cl)c1
T/C [2]: 104 % of control
T/C [3]: 96 % of control
T/C [4]: 91 % of control

CCOC(=O)C(=CNc1cc(C)c2[nH]c3ccc(Br)cc3c2c1C)C(=O)OCC
T/C [19]: 93 % of control
T/C [20]: 93 % of control
T/C [21]: 86 % of control and 93 % of control

c1cc(-c2nn[nH]n2)ccc1NNc1ccc(-c2nn[nH]n2)cc1
T/C (dose: 50.0 mg/kg/injection, schedule: Q01DX001 (ip), vehicle: Klucel (hydroxypropylcellulose) (HPC)): 101 % of control
T/C [22]: 105 % of control
T/C [23]: 98 % of control

Cc1cc2nc3c(C(O)C(O)C(O)CO)nn(-c4ccc(F)cc4)c3nc2cc1C (stereo not given)
T/C [17]: 88 % of control
T/C (dose: 100.0 mg/kg/injection, schedule: Q01DX005 (ip), vehicle: Klucel (hydroxypropylcellulose) (HPC)): 86 % of control
T/C (dose: 200.0 mg/kg/injection, schedule: Q01DX005 (ip), vehicle: Klucel (hydroxypropylcellulose) (HPC)): 93 % of control

COc1cc2c(cc1OC)[C@H](Cc1ccc(Oc3cc4c(cc3O)-c3c(OC)c(OC)cc5c3[C@@H](C4)N(C)CC5)cc1)N(C)CC2
T/C (dose: 11.88 mg/kg/injection, schedule: Q01DX005 (ip), vehicle: Klucel (hydroxypropylcellulose) (HPC)): 98 % of control
T/C (dose: 23.75 mg/kg/injection, schedule: Q01DX005 (ip), vehicle: Klucel (hydroxypropylcellulose) (HPC)): 92 % of control
T/C (dose: 47.5 mg/kg/injection, schedule: Q01DX005 (ip), vehicle: Klucel (hydroxypropylcellulose) (HPC)): 93 % of control
T/C (dose: 95.0 mg/kg/injection, schedule: Q01DX005 (ip), vehicle: Klucel (hydroxypropylcellulose) (HPC)): 105 % of control

C=Cc1c2[n-]c(c1C)/C=c1\[n-]/c(c(C)c1C=C)=C\c1[n-]c(c(CCC(=O)O)c1C)/C=c1\[n-]/c(c(C)c1CCC(=O)O)=C\2.[Pt+4]
T/C (dose: 50.0 mg/kg/injection, schedule: Q04DX002 (ip), vehicle: saline): 89 % of control
T/C [13]: 100 % of control
T/C [14]: 97 % of control

CCOC(=O)NC(=O)CNc1ncc([N+](=O)[O-])s1
T/C [22]: 100 % of control
T/C [23]: 108 % of control

CN1CCC/C1=C/C(=O)c1ccc(Cl)cc1
T/C [5]: 102 % of control and 98 % of control
T/C [6]: 111 % of control and 120 % of control
T/C (dose: 400.0 mg/kg/injection, schedule: Q04DX003 (ip), vehicle: saline): 92 % of control

CCOP(=O)(O)CC(=O)NC(CC(=O)O)C(=O)O (stereo not given)
T/C [9]: 100 % of control and 111 % of control
T/C [10]: 103 % of control and 108 % of control
T/C [11]: 106 % of control

c1ccc(-c2ccccc2C2=NC2)c(C2=NC2)c1
T/C [18]: 99 % of control
T/C [12]: 100 % of control
T/C [1]: 99 % of control and 94 % of control

CCOC(=O)c1conc1C
T/C [24]: 112 % of control
T/C (dose: 25.0 mg/kg/injection, schedule: Q01DX009 (ip), vehicle: saline): 106 % of control
T/C [15]: 101 % of control and 103 % of control

O=c1[nH]nc2ccc(n[nH]c1=O)c1ccccc21
T/C (dose: 3.13 mg/kg/injection, schedule: Q01DX005 (ip), vehicle: saline with Tween-80): 104 % of control
T/C (dose: 6.25 mg/kg/injection, schedule: Q01DX005 (ip), vehicle: saline with Tween-80): 107 % of control
T/C [7]: 99 % of control and 103 % of control
T/C [8]: 101 % of control
T/C [2]: 104 % of control and 107 % of control

O=C(NC(Cc1ccccc1)C(=O)NC(Cc1c[nH]c2ccccc12)C(=O)O)OCc1ccccc1 (stereo not given)
T/C [2]: 90 % of control
T/C [3]: 98 % of control
T/C [4]: 91 % of control

CSC1=NC=C(C#N)C2=NC(c3c(F)cccc3Cl)NN12 (stereo not given)
T/C [19]: 89 % of control
T/C [20]: 89 % of control
T/C [21]: 90 % of control

CCN(CC)CCCCNc1ccc(NCCCCN(CC)CC)c2c1C(=O)c1ccccc1C2=O
T/C (dose: 3.12 mg/kg/injection, schedule: Q01DX009 (ip), vehicle: saline): 90 % of control
T/C (dose: 6.25 mg/kg/injection, schedule: Q01DX009 (ip), vehicle: saline): 90 % of control
T/C (dose: 12.5 mg/kg/injection, schedule: Q01DX009 (ip), vehicle: saline with Tween-80): 118 % of control
T/C [24]: 97 % of control
T/C (dose: 25.0 mg/kg/injection, schedule: Q01DX009 (ip), vehicle: saline with Tween-80): 115 % of control
T/C (dose: 50.0 mg/kg/injection, schedule: Q01DX009 (ip), vehicle: saline with Tween-80): 120 % of control
T/C [15]: 91 % of control
T/C [16]: 100 % of control
